Here are results for 5 molecules from patent publication US11890316B2, “Oral octreotide therapy and contraceptive methods” (Amryt Endo, Inc., priority 2020, dated 2024).

Data set [1] in a line: clinical. The following applies: female, human, in vivo, po.
Data set [2] in a line: clinical. The note with it: for Cmax, least squares geometric mean, Test / Cmax, least squares geometric mean, Reference: co-administered with HCTZ and metformin, in ng/mL; for effect of oral octreotide on the exposure to the probe drug (Cmax and AUC0-5): single 40 mg oral octreotide acetate vs placebo, first 5 h after dosing. An excerpt:
This was a single-center, randomized, single-blind, placebo-controlled, crossover design study in healthy male and female subjects.
Eligible subjects were randomized in a 1:1 ratio to one of two treatment sequences of test conditions (i.e., Group 1 or Group 2); females were studied under 4 test conditions (A to D), whereas males were studied under 2 test conditions only (A and B), as shown in Table 1.
The study comprised a screening period, 4 treatment (dosing) periods for females and 2 treatment periods for males, and a follow-up period (approximately 7-10 days following the last dosing). There was a washout period of at least 14 days between dosing events.
The effect of […] on the absorption of estradiol was assessed by comparing Test Conditions C and D in up to 14 females. Blood sampling was conducted over the first 5 hours after administration.
Confidence intervals (Cis) (90%) were constructed for the geometric mean rations (GMRs) (probe drug+oral octreotide to probe drug alone) of the 2 parameters using the natural log-transformed data and the 2 one-sided t-tests procedure. The GMRs and CIs were exponentiated back to the original scale. The effect of concurrent administration of oral octreotide was assessed from the GMRs and 90% Cis. The discrete parameter Tmax was compared among treatments using non-parametric analyses.

Setting [3] is: both, human, in vivo, po, 100 mg.
Where [4] appears, read: both, human, in vivo, po, 850 mg.
Setting [5] is: R-warfarin with oral octreotide vs R-warfarin with placebo.
The mark [6] stands for this setting: S-warfarin with oral octreotide vs S-warfarin with placebo.

As to `C#C[C@]1(O)CC[C@H]2[C@@H]3CCc4cc(O)ccc4[C@H]3CC[C@@]21C` [Ethinyl Estradiol, ethinyl estradiol], in data set [1], the “Cmax Geometric Mean Ratio, Estimate” value was 92.05% and the Tmax stood at 2.75 h. Further, in data set [1] (0.06 mg), the AUC(0-t) turned out to be 0.37 ± 0.0802 ng·h/mL and the Tmax worked out at 1.79 h. For the same molecule, the peak concentration (Cmax) in data set [1] (0.06 mg, Cmax) came to 0.113 ± 0.0287 ng/mL.
For the molecule `NS(=O)(=O)c1cc2c(cc1Cl)NCNS2(=O)=O` [Hydrochlorothiazide, hydrochlorothiazide], in data set [2] (both, human, in vivo, po), the “AUC(0-5) Geometric Mean Ratio, Estimate” value is 81.82%; the “Cmax Geometric Mean Ratio, Estimate” value is given as 91.21%; the Tmax was found to be 4 h. Also, in data set [2] (setting [3]), the AUC(0-t) came to 2030 ± 392 ng·h/mL and the Tmax is 2.75 h. Moreover, the Cmax in data set [2] (both, human, in vivo, po, 100 mg, Cmax) was determined as 655 ± 128 ng/mL.
`CN(C)C(=N)N=C(N)N` [Metformin, metformin]: in data set [2] (setting [4]), the area under the curve AUC(0-t) stood at 5500 ± 1280 ng·h/mL and the peak concentration (Cmax) is 1450 ± 398 ng/mL.
Consider `CC(=O)C[C@H](c1ccccc1)c1c(O)c2ccccc2oc1=O` [R-Warfarin, R-warfarin], for which the Cmax in data set [2] (R-warfarin in plasma, single 7.5 mg oral racemic warfarin, with single 40 mg (2x20 mg) oral octreotide acetate, healthy volunteers, mean ± SD) was 508 ± 97.0 ng/mL; in data set [2] (R-warfarin in plasma, single 7.5 mg oral racemic warfarin, without oral octreotide (placebo), healthy volunteers, mean ± SD), 498 ± 82.0 ng/mL. The “Cmax, least squares geometric mean, Test” value in data set [2] (R-warfarin with oral octreotide 40 mg, 7.5 mg racemic warfarin) worked out at 500.10. In addition, the “AUC(0-5) Geometric Mean Ratio, Estimate” value in data set [2] (setting [5]) is reported as 105.17%. Besides, the “Cmax Geometric Mean Ratio, Estimate” value in data set [2] (setting [5]) was 101.84%. Also, the “Cmax, least squares geometric mean, Reference” value in data set [2] (R-warfarin with placebo, 7.5 mg racemic warfarin) was found to be 491.04. The “AUC(0-5)” value came out at 2012 ± 348 ng·h/mL in data set [2] (R-warfarin, 7.5 mg racemic warfarin, with 40 mg oral octreotide acetate, mean ± SD) and 1907 ± 280 ng·h/mL in data set [2] (R-warfarin, 7.5 mg racemic warfarin, without oral octreotide (placebo), mean ± SD). The Tmax in data set [2] (R-warfarin, 7.5 mg racemic warfarin, with 40 mg oral octreotide acetate, median) is recorded as 2.00 (18) h; in data set [2] (R-warfarin, 7.5 mg racemic warfarin, without oral octreotide (placebo), median), 1.00 (18) h. Moreover, the “effect of oral octreotide on the exposure to the probe drug (Cmax and AUC0-5)” value in data set [2] (healthy volunteers) is “no significant effect”.
Turning to `CC(=O)C[C@@H](c1ccccc1)c1c(O)c2ccccc2oc1=O` [S-Warfarin, S-warfarin], the Cmax in data set [2] (S-warfarin in plasma, single 7.5 mg oral racemic warfarin, with single 40 mg (2x20 mg) oral octreotide acetate, healthy volunteers, mean ± SD) is on record as 492 ± 114.2 ng/mL; in data set [2] (S-warfarin in plasma, single 7.5 mg oral racemic warfarin, without oral octreotide (placebo), mean ± SD), 503 ± 91.2 ng/mL. Besides, the “Cmax, least squares geometric mean, Test” value in data set [2] (S-warfarin with oral octreotide 40 mg, 7.5 mg racemic warfarin) came out at 480.09. For the same molecule, the “AUC(0-5) Geometric Mean Ratio, Estimate” value in data set [2] (setting [6]) is reported as 102.38%. The “Cmax Geometric Mean Ratio, Estimate” value in data set [2] (setting [6]) was 97.06%. For the same molecule, the “Cmax, least squares geometric mean, Reference” value in data set [2] (S-warfarin with placebo, 7.5 mg racemic warfarin) came out at 494.64. The “AUC(0-5)” value was 1894 ± 330 ng·h/mL in data set [2] (S-warfarin, 7.5 mg racemic warfarin, with 40 mg oral octreotide acetate, mean ± SD) and 1846 ± 286 ng·h/mL in data set [2] (S-warfarin, 7.5 mg racemic warfarin, without oral octreotide (placebo), mean ± SD). Besides, the Tmax in data set [2] (S-warfarin, 7.5 mg racemic warfarin, with 40 mg oral octreotide acetate, median) was 1.50 (18) h; in data set [2] (S-warfarin, 7.5 mg racemic warfarin, without oral octreotide (placebo), median) it was 1.00 (18) h. Further, the “effect of oral octreotide on the exposure to the probe drug (Cmax and AUC0-5)” value in data set [2] (healthy volunteers) is reported as “no significant effect”.

As a reminder, the AUC(0-t) is the area under the concentration-time curve up to a stated or last time point. The Cmax is the highest concentration seen after dosing.
